Measured values as given in US10906929B2, “Phosphoramidate nucleoside derivatives as anticancer agents” (NuCana plc, priority 2016, dated 2021).

Experiments:
[1] = system: MCF-7 Mammary epithelial adenocarcinoma; assay: In vitro viability assay, CellTiterGlo; type: cell-based, human; details: for EC50: Homo sapiens, MCF7, 72 h, read-out: EC50 (μM) Ab; for Top Inhibition (%): MCF-7, CellTiterGlo, 72 h
Procedure: (§1) In vitro viability assay was performed to assess the effects of compounds on cell viability in selected cell lines over 72 h using the CellTiterGlo (CTG, Promega-G7573) assay. The tests were performed in duplicates with treatment of compounds at 9 points, 3.16 folds titration in 96 well plates over ˜72 h. The compound starting concentrations were […]. Cell viability assay using CellTiterGlo in 96-well plate were performed. Compounds were dissolved to 40 mM with thawed 100% DMSO. Compounds were serially diluted at 3.16-fold in thawed DMSO, and warmed to 37° C. before being dissolved in media (2 μl+200 μl). After compounds were dissolved in media, media containing compounds were warmed to 37° C. in incubator and then compounds in media were added to cell plates (50 μl+50 μl) in duplicates. The compounds' final concentrations were from 198 μM to 19.9 nM. Solubility of all compounds was checked and recorded again, then the plates were transferred to CO2 tissue culture incubator immediately and incubated for 3 days. DMSO final concentration is 0.5%.

[2] = system: KG-1 Acute myelogenous leukaemia; assay: In vitro viability assay, CellTiterGlo; type: cell-based; details: for EC50: Homo sapiens, KG-1, 72 h, read-out: EC50 (μM) Ab; for Top Inhibition (%): KG-1, CellTiterGlo, 72 h
Procedure: as §1

[3] = system: HL-60 Promyelocytic leukaemia; assay: In vitro viability assay, CellTiterGlo; type: cell-based; details: for Top Inhibition (%): HL-60, CellTiterGlo, 72 h; for EC50: Homo sapiens, HL-60, 72 h, read-out: EC50 (μM) Ab
Procedure: as §1

[4] = system: Z-138 Mantle cell lymphoma; assay: In vitro viability assay, CellTiterGlo; type: cell-based; details: for EC50: Homo sapiens, Z-138, 72 h, read-out: EC50 (μM) Ab; for Top Inhibition (%): Z-138, CellTiterGlo, 72 h
Procedure: as §1

[5] = system: HEL92.1.7 Erythroleukaemia; assay: In vitro viability assay, CellTiterGlo; type: cell-based; details: for Top Inhibition (%): HEL92.1.7, CellTiterGlo, 72 h; for EC50: Homo sapiens, HEL 92.1.7, 72 h, read-out: EC50 (μM) Ab
Procedure: as §1

[6] = system: RL Non-Hodgkin's lymphoma; assay: In vitro viability assay, CellTiterGlo; type: cell-based; details: 72 h; for Top Inhibition (%): CellTiterGlo; for EC50: Homo sapiens, read-out: EC50 (μM) Ab
Procedure: as §1

KG1 = assay: In vitro cytotoxicity, MTS assay; type: cell-based; details: Homo sapiens, KG-1, 72 h, read-out: Inhibitory concentration (IC50) KG1
Procedure: (§2) Cladribine phosphoramidate derivatives were evaluated against six leukaemic cell lines (KG1, U937, K562, NB4R2, NB4 and HL-60) in vitro. Inhibitory concentration (IC50) at which 50% of the cells were no longer viable (calculated using MTS assay) was determined. Cells were treated with Cladribine and its 3′-phosphoramidate derivatives at concentrations between 100 μM and 0.02 μM by serial dilutions and incubated for 72 h at 37° C., 5% CO2 in a final volume of 90 μL. Twenty microliters of MTS reagent (Promega UK Ltd, Southampton, Hants) was added to the tumour cell cultures and reaction incubated for a further 4 h at 37° C., 5% CO2. The absorbance of the reaction after this time was read by spectrophotometry at 490 nm and the percentage of viable cells calculated relative to untreated control cells in the same assay.

U937 = assay: In vitro cytotoxicity, MTS assay; type: cell-based; details: Homo sapiens, U-937, 72 h, read-out: Inhibitory concentration (IC50) U937
Procedure: as §2

NB4 = assay: In vitro cytotoxicity, MTS assay; type: cell-based; details: Homo sapiens, NB-4, 72 h, read-out: Inhibitory concentration (IC50) NB4
Procedure: as §2

HL-60 = assay: In vitro cytotoxicity, MTS assay; type: cell-based; details: Homo sapiens, 72 h, read-out: Inhibitory concentration (IC50) HL-60
Procedure: as §2

K562 = assay: In vitro cytotoxicity, MTS assay; type: cell-based; details: Homo sapiens, 72 h, read-out: Inhibitory concentration (IC50) K562
Procedure: as §2

NB4R2 = assay: In vitro cytotoxicity, MTS assay; type: cell-based; details: 72 h, read-out: Inhibitory concentration (IC50) NB4R2
Procedure: as §2

Compound | EC50 [1] [µM] | Top Inhibition (%) [1] [%] | EC50 [2] [µM] | Top Inhibition (%) [2] [%] | Top Inhibition (%) [3] [%] | EC50 [3] [µM] | EC50 [4] [µM] | Top Inhibition (%) [4] [%] | Top Inhibition (%) [5] [%] | EC50 [5] [µM] | Top Inhibition (%) [6] [%] | EC50 [6] [µM] | IC50 (KG1) [nM] | IC50 (U937) [nM] | IC50 (NB4) [nM] | IC50 (HL-60) [nM] | IC50 (K562) [nM] | IC50 (NB4R2) [nM]
CCCCCOC(=O)[C@H](CC(C)C)NP(=O)(Oc1cccc2ccccc12)OC1C[C@H](n2cnc3c(N)nc(Cl)nc32)O[C@@H]1CO (stereo partly drawn) [Compound 7, 2-Chloro-2′-deoxyadenosine-3′-[1-naphthyl-(pentoxy-L-leucinyl)] phosphate] | 5.45 | 103 | 1.5 | 98.8 | 98 | 0.27 | 1.07 | 101 | 98.6 | 0.07 | 100 | 0.5 |  |  |  |  |  | 
Nc1nc(Cl)nc2c1ncn2[C@H]1CC(OP(=O)(N[C@@H](Cc2ccccc2)C(=O)OCc2ccccc2)Oc2ccccc2)[C@@H](CO)O1 (stereo partly drawn) [Compound 12, 2-Chloro-2 ‘-deoxyadenosine-3’-[phenyl-(benzoxy-L-phenylalaninyl)] phosphate] |  |  |  |  |  |  |  |  |  |  |  |  | 4000 | 2000 | 1000 | 2000 | 10000 | 2000
CC(C)OC(=O)[C@H](C)NP(=O)(Oc1ccccc1)OC1C[C@H](n2cnc3c(N)nc(Cl)nc32)O[C@@H]1CO (stereo partly drawn) [Compound 15, 2-Chloro-2′-deoxyadenosine-3′-[phenylaso-propoxy-L-alaninyl)] phosphate] |  |  |  |  |  |  |  |  |  |  |  |  | 5000 | 400 | 6000 | 2000 | > 10000 | 9000
CC(C)C[C@H](NP(=O)(Oc1ccccc1)OC1C[C@H](n2cnc3c(N)nc(Cl)nc32)O[C@@H]1CO)C(=O)OCc1ccccc1 (stereo partly drawn) [Compound 5, 2-Chloro-2 ‘-deoxyadenosine-3’-[phenyl-(benzoxy-L-leucinyl)]-phosphate] |  |  |  |  |  |  |  |  |  |  |  |  | 5040 | > 10000 | 2560 | 4450 | > 10000 | 1570
C[C@@H](NP(=O)(Oc1ccccc1)OC1C[C@H](n2cnc3c(N)nc(Cl)nc32)O[C@@H]1CO)C(=O)OCc1ccccc1 (stereo partly drawn) [Compound 3, 2-Chloro-2 ‘-deoxyadenosine-3’-[phenyl-(benzoxy-D-alaninyl)]-phosphate] |  |  |  |  |  |  |  |  |  |  |  |  | > 10000 | 7520 | 7820 | > 10000 | > 10000 | > 10000
CCOC(=O)[C@H](C)NP(=O)(Oc1ccccc1)OC1C[C@H](n2cnc3c(N)nc(Cl)nc32)O[C@@H]1CO (stereo partly drawn) [Compound 1, 2-Chloro-2 ‘-deoxyadenosine-3’-[phenyl-(ethoxy-L-alaninyl)]-phosphate] |  |  |  |  |  |  |  |  |  |  |  |  | 1760 | 3060 | 740 | 2680 | > 10000 | 2520
C[C@H](NP(=O)(Oc1ccccc1)OC1C[C@H](n2cnc3c(N)nc(Cl)nc32)O[C@@H]1CO)C(=O)OC(C)(C)C (stereo partly drawn) [Compound 2, 2-Chloro-2 ‘-deoxyadenosine-3’-[phenyl-(tert-butoxy-L-alaninyl)]-phosphate] |  |  |  |  |  |  |  |  |  |  |  |  | 2000 | 6000 | > 10000 | > 10000 | > 10000 | > 10000
C[C@H](NP(=O)(Oc1ccccc1)OC1C[C@H](n2cnc3c(N)nc(Cl)nc32)O[C@@H]1CO)C(=O)OC1CCCCC1 (stereo partly drawn) [Compound 9, 2-Chloro-2′-deoxyadenosine-3′-[phenyl-(cyclohexoxy-L-alaninyl)] phosphate] | 21 | 100 | 0.8 | 96.9 | 87.7 | 0.13 | 0.051 | 99.9 | 97.2 | 0.044 | 89.9 | 0.14 |  |  |  |  |  | 
C[C@H](NP(=O)(Oc1ccccc1)OC1C[C@H](n2cnc3c(N)nc(Cl)nc32)O[C@@H]1CO)C(=O)O[C@@H](C)c1ccccc1 (stereo partly drawn) [Compound 17] |  |  |  |  |  |  |  |  |  |  |  |  |  |  | 5500 | 3200 |  | 
CCOC(=O)C(C)(C)NP(=O)(Oc1ccccc1)OC1C[C@H](n2cnc3c(N)nc(Cl)nc32)O[C@@H]1CO (stereo partly drawn) [Compound 11, 2-Chloro-2 ‘-deoxyadenosine-3’-[phenyl-(ethoxy-2,2-dimethylglycinyl)]-phosphate] |  |  |  |  |  |  |  |  |  |  |  |  |  |  | > 10000 | 300 |  | 
CC(C)[C@H](NP(=O)(Oc1ccccc1)OC1C[C@H](n2cnc3c(N)nc(Cl)nc32)O[C@@H]1CO)C(=O)OCc1ccccc1 (stereo partly drawn) [Compound 14, 2-Chloro-2′-deoxyadenosine-3′-[phenyl-(benzoxy-L-valinyl)] phosphate] |  |  |  |  |  |  |  |  |  |  |  |  | 2000 | 400 | 800 | 3000 | > 10000 | 2000
C[C@H](NP(=O)(Oc1cccc2ccccc12)OC1C[C@H](n2cnc3c(N)nc(Cl)nc32)O[C@@H]1CO)C(=O)OC1CCCCC1 (stereo partly drawn) [Compound 8, 2-Chloro-2 ‘-deoxyadenosine-3’-[1-naphthyl-(cyclohexoxy-L-alaninyl)] phosphate] | 7.97 | 101 | 2.75 | 98.4 | 96 | 0.46 | 3.5 | 100 | 98.3 | 0.18 | 98.1 | 0.85 |  |  |  |  |  | 
C[C@H](NP(=O)(Oc1ccccc1)OC1C[C@H](n2cnc3c(N)nc(Cl)nc32)O[C@@H]1CO)C(=O)OCC(C)(C)C (stereo partly drawn) [Compound 10, 2-Chloro-2′-deoxyadenosine-3′-[phenyl-(2,2-dimethylpropoxy-L-alaninyl)] phosphate] | 22 | 99.2 | 0.6 | 95 | 87.7 | 0.12 | 0.047 | 100 | 97.2 | 0.042 | 89.8 | 0.15 |  |  | > 10000 | 5300 |  | 
CCC(C)OC(=O)[C@H](C)NP(=O)(Oc1ccccc1)OC1C[C@H](n2cnc3c(N)nc(Cl)nc32)O[C@@H]1CO (stereo partly drawn) [Compound 16, 2-Chloro-2′-deoxyadenosine-3′-[phenyl-(2-butoxy-L-alaninyl)] phosphate] |  |  |  |  |  |  |  |  |  |  |  |  | 7000 | 2000 | 9000 | 8000 | > 10000 | > 10000
Nc1nc(Cl)nc2c1ncn2[C@H]1CC(OP(=O)(NCC(=O)OCc2ccccc2)Oc2ccccc2)[C@@H](CO)O1 (stereo partly drawn) [Compound 4, 2-Chloro-2 ‘-deoxyadenosine-3’-[phenyl-(benzoxy-glycinyl)]-phosphate] |  |  |  |  |  |  |  |  |  |  |  |  | > 10000 | > 10000 | 8040 | > 10000 | > 10000 | 5560
Nc1nc(Cl)nc2c1ncn2[C@H]1CC(OP(=O)(N[C@@H](Cc2ccccc2)C(=O)OCc2ccccc2)Oc2cccc3ccccc23)[C@@H](CO)O1 (stereo partly drawn) [Compound 13, 2-Chloro-2′-deoxyadenosine-3′-[1-naphthyl(benzoxy-L-phenylaninyl)] phosphate] |  |  |  |  |  |  |  |  |  |  |  |  | 1000 | 1000 | 300 | 1000 | 7000 | 800
